# Experimental data taken from patent US10757937B2, “Sulfonamides that activate ABA receptors” (The Regents of the University of California, priority 2014, dated 2020).
# Biological target: T1, PYL5 (Arabidopsis thaliana, UniProt Q9FLB1)
# T1 construct: 6X-His; made in house; host or cells: E. coli BL21[DE3]pLysS
# T1 sequence (Q9FLB1 1-203): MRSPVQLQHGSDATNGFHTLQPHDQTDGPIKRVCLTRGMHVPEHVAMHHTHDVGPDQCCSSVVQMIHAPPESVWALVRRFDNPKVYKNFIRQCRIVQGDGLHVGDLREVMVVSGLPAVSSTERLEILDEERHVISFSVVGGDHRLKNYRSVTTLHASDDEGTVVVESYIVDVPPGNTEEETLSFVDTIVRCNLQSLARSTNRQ
# T1 sequence (Q9CAJ0 23-511 partner): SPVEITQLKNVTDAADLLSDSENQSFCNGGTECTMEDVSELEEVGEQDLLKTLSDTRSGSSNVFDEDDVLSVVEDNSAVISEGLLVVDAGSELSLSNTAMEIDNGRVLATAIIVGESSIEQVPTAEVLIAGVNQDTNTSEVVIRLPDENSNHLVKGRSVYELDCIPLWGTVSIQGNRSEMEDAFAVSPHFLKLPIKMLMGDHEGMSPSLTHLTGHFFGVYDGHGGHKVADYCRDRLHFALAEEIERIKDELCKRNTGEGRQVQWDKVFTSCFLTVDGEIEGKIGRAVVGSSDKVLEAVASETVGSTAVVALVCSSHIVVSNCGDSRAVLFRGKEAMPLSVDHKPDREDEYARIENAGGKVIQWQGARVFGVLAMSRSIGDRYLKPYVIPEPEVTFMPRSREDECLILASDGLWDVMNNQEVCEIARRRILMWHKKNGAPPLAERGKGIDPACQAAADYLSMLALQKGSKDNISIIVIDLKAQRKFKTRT
# Test: receptor-mediated PP2C (HAB1) inhibition in vitro assay
# Type: biochemical
# Conditions: compound at 25 μM; control without agonist = 100%
# Protocol: (§1) A family of 62 structurally related N-acyl sulfonamides (Tables I-V) were tested for ABA agonist activity using multiple receptor-mediated PP2C inhibition in vitro assays (Park et al., 2009). […] The constructs utilized for protein expression have been previously described (Okamoto et al. 2013). For constructs encoding 6X-His-fusion proteins (all receptors except PYL11), the coding sequences were of the receptors were cloned in the vector pET28, expressed in BL21[DE3]pLysS E. coli host cells at 18° C. overnight, and subsequently purified from sonicated lysates using Ni-NTA agarose (Qiagen, USA), according to the manufacturer's instructions. PYL11 was constructed as a maltose binding protein fusion in the vector pMAL-c, expressed in BL21┌DE3┐pLysS host cells and purified using amylose resin (New England Biolabs) as described by the manufacturer. Recombinant GST-HAB1 was expressed and purified as described previously (Park et al., 2009). PP2C activity assays were conducted using the fluorogenic phosphatase substrate 4-methylumbelliferyl-phosphate. Recombinant receptors and HAB1 were used to examine ligand-induced PP2C inactivation in response to multiple test compounds. Enzyme inhibition assays were conducted using the following assay conditions: 50 nM GST-PP2C, 100 mM Tris-OAc (pH 7.9), 100 mM NaCl, 1 mM MnCl2, 1% β-mercaptoethanol. […] Because of this, the ratio of each receptor used in the PP2C-inhibitions assays was established empirically as the minimum fold-excess of receptor required to elicit maximal PP2C inhibition at a saturating ABA concentration (10 μM).
# (§2) Based on this criterion, we used a ratio of 2:1 receptor in the assays described herein.
# (§3) Using the above assay conditions, compounds were tested at 25 μM for agonist activity on PYL4, PYL5, PYL8 and PYL9. […] Consequently, a subset of the compounds was tested at multiple concentrations against 11 receptors so that IC50 values and receptor selectivity profiles could be examined. […] Thus, the N-acylsulfonamide agonists disclosed are selective for monomeric receptors.
# (§4) Additional compounds were tested for biological activity following the procedures of Example 1 with minor modifications.
# (§5) For these in vitro receptor assays, the compounds listed were tested in in vitro PP2C inhibition assays with 50 uM of the test compound except for ABA (10 uM). IC50s were calculated from dose curves, but only for selected compounds.
row,SMILES,PP2C Activity (25 μm) PYL5
1,COc1ccccc1C1(C(=O)NS(=O)(=O)Cc2ccc(C#N)cc2)CC1 [Compound 41],27%
2,N#Cc1ccc(CS(=O)(=O)NC(=O)C2(c3ccc(C(F)(F)F)cc3)CCOCC2)cc1 [Compound 59],65%
3,CC(=O)N1CCC(C(=O)NS(=O)(=O)Cc2ccc(C#N)cc2)(c2ccccc2)CC1 [Compound 56],105%
4,N#Cc1ccc(CS(=O)(=O)NC(=O)C2(c3cccc(Cl)c3)CCOCC2)cc1 [Compound 58],83%
5,COc1ccc(C(C)(C)C(=O)NS(=O)(=O)Cc2ccc(C#N)cc2)cc1OC [Compound 21],89%
6,CC(C)(C)c1ccc(C2(C(=O)NS(=O)(=O)Cc3ccc(C#N)cc3)CC2)cc1 [Compound 40],101%
7,CC(C)COc1ccc(C(C)(C)C(=O)NS(=O)(=O)Cc2ccc(C#N)cc2)cc1 [Compound 14],103%
8,CCOc1ccc(C2(C(=O)NS(=O)(=O)Cc3ccc(C#N)cc3)CC2)cc1 [Compound 52],99%
9,N#Cc1ccc(CS(=O)(=O)NC(=O)C2(c3ccccc3)CCN(S(=O)(=O)c3ccccc3)CC2)cc1 [Compound 60],70%

# Biological target: T2, PYL4 (Arabidopsis thaliana, UniProt O80920)
# T2 construct: 6X-His; made in house; host or cells: E. coli BL21[DE3]pLysS
# T2 sequence (O80920 1-207): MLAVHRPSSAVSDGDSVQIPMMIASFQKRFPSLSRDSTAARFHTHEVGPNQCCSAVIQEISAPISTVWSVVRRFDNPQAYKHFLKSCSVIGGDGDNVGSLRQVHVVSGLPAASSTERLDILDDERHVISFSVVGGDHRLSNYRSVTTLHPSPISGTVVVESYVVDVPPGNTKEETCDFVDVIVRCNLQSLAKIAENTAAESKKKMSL
# T2 sequence (Q9CAJ0 23-511 partner): T1 sequence (Q9CAJ0 23-511 partner)
# Test: as above
# Type: biochemical
# Conditions: compound at 25 μM; control without agonist = 100%
# Protocol: as §1, §2, §3, §4, §5
row,SMILES,PP2C Activity (25 μm) PYL4
1,COc1ccccc1C1(C(=O)NS(=O)(=O)Cc2ccc(C#N)cc2)CC1 [Compound 41],93%
2,N#Cc1ccc(CS(=O)(=O)NC(=O)C2(c3ccc(C(F)(F)F)cc3)CCOCC2)cc1 [Compound 59],92%
3,CC(=O)N1CCC(C(=O)NS(=O)(=O)Cc2ccc(C#N)cc2)(c2ccccc2)CC1 [Compound 56],94%
4,N#Cc1ccc(CS(=O)(=O)NC(=O)C2(c3cccc(Cl)c3)CCOCC2)cc1 [Compound 58],96%
5,COc1ccc(C(C)(C)C(=O)NS(=O)(=O)Cc2ccc(C#N)cc2)cc1OC [Compound 21],89%
6,CC(C)(C)c1ccc(C2(C(=O)NS(=O)(=O)Cc3ccc(C#N)cc3)CC2)cc1 [Compound 40],92%
7,CC(C)COc1ccc(C(C)(C)C(=O)NS(=O)(=O)Cc2ccc(C#N)cc2)cc1 [Compound 14],97%
8,CCOc1ccc(C2(C(=O)NS(=O)(=O)Cc3ccc(C#N)cc3)CC2)cc1 [Compound 52],94%
9,N#Cc1ccc(CS(=O)(=O)NC(=O)C2(c3ccccc3)CCN(S(=O)(=O)c3ccccc3)CC2)cc1 [Compound 60],90%

# Biological target: T3, PYL8 (Arabidopsis thaliana, UniProt Q9FGM1)
# T3 construct: 6X-His; made in house; host or cells: E. coli BL21[DE3]pLysS
# T3 sequence (Q9FGM1 1-188): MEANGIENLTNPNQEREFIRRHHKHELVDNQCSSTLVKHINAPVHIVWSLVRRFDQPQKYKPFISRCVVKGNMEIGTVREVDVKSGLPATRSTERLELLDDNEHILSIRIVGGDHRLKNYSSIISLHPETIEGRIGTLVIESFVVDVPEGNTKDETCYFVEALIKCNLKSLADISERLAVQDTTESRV
# T3 sequence (Q9CAJ0 23-511 partner): T1 sequence (Q9CAJ0 23-511 partner)
# Test: as above
# Type: biochemical
# Conditions: compound at 25 μM; control without agonist = 100%
# Protocol: as §1, §2, §3, §4, §5
row,SMILES,PP2C Activity (25 μm) PYL8
1,COc1ccccc1C1(C(=O)NS(=O)(=O)Cc2ccc(C#N)cc2)CC1 [Compound 41],89%
2,N#Cc1ccc(CS(=O)(=O)NC(=O)C2(c3ccc(C(F)(F)F)cc3)CCOCC2)cc1 [Compound 59],97%
3,CC(=O)N1CCC(C(=O)NS(=O)(=O)Cc2ccc(C#N)cc2)(c2ccccc2)CC1 [Compound 56],106%
4,N#Cc1ccc(CS(=O)(=O)NC(=O)C2(c3cccc(Cl)c3)CCOCC2)cc1 [Compound 58],84%
5,COc1ccc(C(C)(C)C(=O)NS(=O)(=O)Cc2ccc(C#N)cc2)cc1OC [Compound 21],98%
6,CC(C)(C)c1ccc(C2(C(=O)NS(=O)(=O)Cc3ccc(C#N)cc3)CC2)cc1 [Compound 40],106%
7,CC(C)COc1ccc(C(C)(C)C(=O)NS(=O)(=O)Cc2ccc(C#N)cc2)cc1 [Compound 14],108%
8,CCOc1ccc(C2(C(=O)NS(=O)(=O)Cc3ccc(C#N)cc3)CC2)cc1 [Compound 52],91%
9,N#Cc1ccc(CS(=O)(=O)NC(=O)C2(c3ccccc3)CCN(S(=O)(=O)c3ccccc3)CC2)cc1 [Compound 60],101%

# Biological target: T4, PYL9 (Arabidopsis thaliana, UniProt Q84MC7)
# T4 construct: 6X-His; made in house; host or cells: E. coli BL21[DE3]pLysS
# T4 sequence (Q84MC7 1-187): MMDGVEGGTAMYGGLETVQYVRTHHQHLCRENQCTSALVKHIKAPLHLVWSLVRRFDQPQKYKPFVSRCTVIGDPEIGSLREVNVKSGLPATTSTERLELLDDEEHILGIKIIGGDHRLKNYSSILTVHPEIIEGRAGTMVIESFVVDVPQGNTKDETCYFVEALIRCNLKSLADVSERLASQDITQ
# T4 sequence (Q9CAJ0 23-511 partner): T1 sequence (Q9CAJ0 23-511 partner)
# Test: as above
# Type: biochemical
# Conditions: compound at 25 μM; control without agonist = 100%
# Protocol: as §1, §2, §3, §4, §5
row,SMILES,PP2C Activity (25 μm) PYL9
1,COc1ccccc1C1(C(=O)NS(=O)(=O)Cc2ccc(C#N)cc2)CC1 [Compound 41],81%
2,N#Cc1ccc(CS(=O)(=O)NC(=O)C2(c3ccc(C(F)(F)F)cc3)CCOCC2)cc1 [Compound 59],98%
3,CC(=O)N1CCC(C(=O)NS(=O)(=O)Cc2ccc(C#N)cc2)(c2ccccc2)CC1 [Compound 56],108%
4,N#Cc1ccc(CS(=O)(=O)NC(=O)C2(c3cccc(Cl)c3)CCOCC2)cc1 [Compound 58],83%
5,COc1ccc(C(C)(C)C(=O)NS(=O)(=O)Cc2ccc(C#N)cc2)cc1OC [Compound 21],102%
6,CC(C)(C)c1ccc(C2(C(=O)NS(=O)(=O)Cc3ccc(C#N)cc3)CC2)cc1 [Compound 40],103%
7,CC(C)COc1ccc(C(C)(C)C(=O)NS(=O)(=O)Cc2ccc(C#N)cc2)cc1 [Compound 14],108%
8,CCOc1ccc(C2(C(=O)NS(=O)(=O)Cc3ccc(C#N)cc3)CC2)cc1 [Compound 52],98%
9,N#Cc1ccc(CS(=O)(=O)NC(=O)C2(c3ccccc3)CCN(S(=O)(=O)c3ccccc3)CC2)cc1 [Compound 60],101%

# Test system: Arabidopsis seed germination and hypocotyl growth
# Test: Arabidopsis seed germination and hypocotyl growth
# Type: in vivo
# Conditions: Germination Inhibition II; tested at 10 and 50 uM; lowest concentration that inhibited hypocotyl growth in wells where seeds germinated; − = none
# Protocol: We germinated seeds from wild type on ½× strength Murashige and Skoog salts growth medium containing either 10 or 50 μM for all 62 compounds as well as 1 μM (+)-ABA and mock controls. […] To investigate if the any of the compounds are sufficient to control vegetative ABA responses, we treated three week old Arabidopsis plants with aqueous solutions containing 0.02% Silwet and either 50 μM of selected N-acylsulfonamides, 50 μM ABA or 0.1% DMSO (the carrier solvent for the compounds tested). The leaf temperatures were subsequently examined using a thermal imaging camera 24 hours after treatment. It is well known that ABA-induced guard cell closure reduces transpiration, which leads to increases in leaf temperatures. It has been estimated that a 1° C. increase in leaf temperature correlates with a decrease in transpiration rates by approximately 50% (Sirault et al., 2009). Since guard cell aperture is the primary determinant of transpiration rates, thermal imaging is a useful way to indirectly infer relative transpiration rates and, indirectly, relative degrees of guard cell opening at the whole plant level.
# as §4
# For the germination inhibition experiment, the compounds were tested at 10 and 50 uM. The amounts shown are the lowest of the two concentrations that either inhibited germination or hypocotyl growth in wells where seeds germinated.
# For the germination test, the compounds were tested at 1, 5, 10, 25 and 50 uM. The amounts shown are the lowest of the concentrations that either inhibited germination or hypocotyl growth in the wells where seeds germinated.
row,SMILES,Hypocotyl Growth Inhibition
1,COc1ccccc1C1(C(=O)NS(=O)(=O)Cc2ccc(C#N)cc2)CC1 [Compound 41],10 µM

# Same assay, conditions: Table VIII; tested at 10 or 50 μM; lowest inhibiting concentration; − = none; read-out: Hypocotyl Growth Inhibition
row,SMILES,minimal effective concentration
1,COc1ccccc1C1(C(=O)NS(=O)(=O)Cc2ccc(C#N)cc2)CC1 [Compound 41],10 µM
